“Also recorded” adds a separate entry of the source. Each block holds one compound with its values, some of them ahead of it.
What was measured:
N85D_G54C 2D12.5 mutant = assay: permanent binding of metal-AABD and metal-NBD complexes, Western blot (Example 10); conditions: metal-NBD complexes
Experimental: The native antibody 2D12.5 binds all rare earth DOTA complexes with high affinity (Corneillie et al., J. Am. Chem. Soc. 125:3436-37, 2003) and other metals with affinities that are weaker. […] Therefore, this mutant was selected for the present example.
Metallation of Chelates with stable metal cations. Metals tested in this experiment included Y, La, Lu, Sr and Sc. Stock chelate concentrations were measured using a Co-57 metal binding assay (Meares et al., Anal. Biochem. 142:68-78, 1984). Stock metal solutions (approximately 0.2 M) were prepared by dissolving the appropriate gravimetrically measured rare earth chloride salt in 0.05 M HCl. As an example, YCl3 (2.5 equivalents) was added to 25 μL of NBD ([…]) dissolved in 0.1 M tetramethylammonium acetate, and the pH was adjusted to 5 by the addition of triethylamine. The metallation was allowed to proceed overnight at 50° C. Samples were promptly frozen at −70° C., and metallation efficiency was assessed using a competitive metal-binding assay with Co-57^3. Excess metal was scavenged with DTPA, which has very low affinity for the antibody (<<1%).
Metal-AABD and metal-NBD complexes were incubated with 2D12.5 Fab mutant N85D_G54C and samples denatured, reduced and separated by SDS-PAGE, as described for Y-90 in the previous examples. […]

antibody 2D12.5 = assay: competitive immunoassay (ELISA) of metal-DOTA complexes relative to Y-DOTA; assay type: binding, murine; conditions: for relative binding of Y-DOTA molecules with different sidechain locations (FIG. 17): Y complexes; for binding compared with the original Y^3+ complex / other rare earths: DOTA complexes, 37° C.
Description: FIG. 13 is graphical display showing the relative binding of metal-DOTA complexes to antibody 2D 12.5. A representative set of competitive binding curves obtained from ELISA experiments described in Example 3 below. Error bars (representing the standard error of the mean) are shown, but are generally smaller than the data points.
To determine the metal selectivity of the antibody 2D12.5, a competitive immunoassays was used to measure the binding constants of multiple metal-DOTA complexes relative to Y^3+-DOTA.
We examined the monoclonal antibody 2D12.5, initially developed to bind specifically to Y-DOTA for targeted radiotherapy (see, e.g., Goodwin et al., Cancer Res. 54: 5937-5946 (1994)), in order to determine the scope of its activity. To assess the metal selectivity of antibody 2D12.5, a competitive immunoassay to measure the binding constants of various metal-DOTA complexes relative to the original Y^3+ complex was developed (FIG. 12). Briefly, 2D12.5 was incubated at 37° C. in the presence of immobilized Y-DOTA and a soluble metal-DOTA competitor. The metal-DOTA concentration was varied from μM to pM in order to determine the relative binding affinity of 2D12.5 for each metal chelate in comparison to Y-DOTA. Binding was measured by standard methods known to those of skill in the art. The DOTA analog used to evaluate binding was [S]-2-(p-nitrobenzyl)-DOTA, which is similar to the original antigen.

2D12.5 = assay: relative binding affinities of metal NBD/AABD complexes and DTPA to 2D12.5; design: species or system murine
Experimental: FIG. 18 is a graphical display showing the relative binding affinities of the NBD complexes of various metal ions relative to Y-NBD.
Relative binding affinities of NBD complexes of various metals ions relative to Y-NBD were determined by methods known in the art and described herein and shown in FIG. 18.

Compound: O=C(O)CN1CCN(CC(=O)O)CCN(CC(=O)O)[C@@H](Cc2ccc([N+](=O)[O-])cc2)CN(CC(=O)O)CC1 [NBD]
permanent bond with N85D_G54C 2D12.5, non-electrophilic negative control (N85D_G54C 2D12.5 mutant): negative

Compound: (5-Amino-2-methoxy-phenyl)-carboxymethyl)-DOTA
relative binding of Y-DOTA molecules with different sidechain locations (FIG. 17) (antibody 2D12.5): decrease in the binding affinity

Compound: O=C([O-])CN1CCN(CC(=O)[O-])CCN(CC(=O)[O-])CCN(CC(=O)[O-])CC1.[Eu+3] [Eu-DOTA]
binding compared with the original Y^3+ complex / other rare earths (antibody 2D12.5): strongest binders

Compound: O=C(O)CN1CCN(CC(=O)O)CCN(CC(=O)O)[C@H](Cc2ccc([N+](=O)[O-])cc2)CN(CC(=O)O)CC1 (single isomer, unassigned) [(R)-isomer of 2-(4-nitrobenzyl)-DOTA]
decrease of affinity as compared to the (S), Λ isomer (antibody 2D12.5; coordinated metal Y^3+ (FIG. 16)): less than an order of magnitude

Compound: O=C([O-])CN1CCN(CC(=O)[O-])CCN(CC(=O)O)CCN(CC(=O)[O-])CC1.[Gd+3] [Gd-DOTA]
binding compared with the original Y^3+ complex / other rare earths (antibody 2D12.5): bind more tightly; also recorded: strongest binders

affinity for the antibody (2D12.5): < 1%
Compound: O=C(O)CN(CCN(CC(=O)O)CC(=O)O)CCN(CC(=O)O)CC(=O)O [DTPA]

Compound: O=C(O)CN1CCN(CC(=O)O)CCN(CC(=O)O)[C@@H](Cc2ccc([N+](=O)[O-])cc2)CN(CC(=O)O)CC1 [Y-NBD, (S)-2-(4-nitrobenzyl)-DOTA]
binding rank of NBD complexes among the rare earths (2D12.5): one of the strongest binders | relative binding of Y-DOTA molecules with different sidechain locations (FIG. 17) (antibody 2D12.5): clearly stronger | relative binding of Y-DOTA isomers (FIG. 16) (antibody 2D12.5; coordinated metal Y^3+): preferred isomer for binding
